In patent publication US20030138816A1, “Methods and kits for diagnosing the occurrence or the phase of minimal change nephrotic syndrome (MCNS) in a human” (INSTITUT NATIONAL DE LA SANTE ET DE LA RECHERCHE MEDICALE, priority 2001, published 2003):
Residues, ends and D or L forms follow the SMILES beside them. *: point of attachment. Cbz = O=C(OCc1ccccc1)*

How the values were obtained:
PBMC from relapse = test: Incubation of PBMCs with the proteasome inhibitor MG132, c-maf protein in protein extracts; assay type: cell-based, human; details: co culture of PBMC from MCNS relapse with MG132, 10 μM, overnight
Method: 5) Quantification of IL4 mRNA by quantitative RT-PCR. Quantitative PCR was performed using the Light Cycler (Roche Molecular Biochemical). The samples (2 μl of the RT reaction, corresponding to 20 ng of total RNA) were amplified in a 20 μl reaction mixture containing […] each primer, and 1×mix LightCycler-DNA master SYBR Green buffer (Roche Molecular Biochemical). Carry-over was prevented by using dUTP instead of dTTP, and heat-labile Uracil DNA glyco-sylase (UDG). A standard curve was made using dilution of the RNA prepared from pUc9-IL4 plasmid. The PCR reaction was started by a denaturation at 95° C. for 2 min followed by 40 three step cycles (95° C.: 1 sec, 60° C.: 10 sec, and 72° C.: 24 sec). The relative value for each sample was calculated using the LightCycler analysis software. 6) Electromobility shift assays (EMSA), immunoprecipitations and Western blottings: Cytosolic and nuclear protein preparations as well as EMSA were performed as previously described (34). […] The subunit composition of DNA-protein complexes containing c-Maf was determined by preincubation of nuclear extracts with 1 μg of polyclonal antibodies raised against c-Maf (sc-7866), c-Fos (sc-7202), and c-Jun (sc-1694), (Santa Cruz, Biotechnology), before the addition of the probe. […] Band shifts were quantified using the ImageQuant V1.11 analysis software. […]

[1] = system: patient with Minimal Change Nephrotic Syndrome; test: Prednisone treatment of the patient selected for the subtractive library (onset of nephrotic syndrome, MCNS); assay type: in vivo, human; details: one patient, prednisone 1 mg/kg/day for four weeks, then tapered

Row | SMILES | effect on L/c-maf protein (long form) (PBMC from relapse) | effect on S/c-maf protein (short form) (PBMC from relapse) | remission of nephrotic syndrome [1]
1 | CC(C)C[C@@H](C=O)NC(=O)[C@H](CC(C)C)NC(=O)[C@H](CC(C)C)NC(=O)OCc1ccccc1 [MG132, carbobenzoxyl-leucinyl-leucinyl-leucinal-H] (Cbz-Leu-Leu-Leu-aldehyde) | no evident change | induces a sequestration of S/c-maf protein | –
2 | C[C@]12C=CC(=O)C=C1CC[C@@H]1[C@@H]2C(=O)C[C@@]2(C)[C@H]1CC[C@]2(O)C(=O)CO [prednisone] | – | – | Complete remission was obtained within ten days
